From US7109364B2, “Group of anti-cancer compounds with specific structure and their production method” (priority 2000, dated 2006) come the findings set out here.

In series [1] the test system is K562 human leukemia cell line. In words: In vitro anti-cancer efficacy, K562, trypan blue dye exclusion, 48 hours. It is filed as cell-based. Here is the method:
(§1) The above compounds were dissolved in DMSO at stock concentration of 10 mg/ml and stored at 4° C. Before each experiment they were diluted to desired concentration with serum-free RPMI 1640 medium
1. K562 human leukemia cell line: K562 cells were maintained in RPMI 1640 medium with 5% fetal bovine serum at 37° C. under 5% CO2 atmosphere. 4×10^4 cells/well were plated on 96-well plate. After treatment with the test compounds and solvent control (DMSO) for 48 hours, numbers of live cells were counted by trypan blue dye exclusion.
(§2) Reagents and Methods: same as in Experiment 1.

Series [2] relates to B16 mouse melanoma cell line. In words: In vitro anti-cancer efficacy, B16, SRB method, 48 hours. It is filed as cell-based. On the procedure:
as §1
2. B16 mouse melanoma cell line: B16 cells were maintained under the same condition as above. 2×10^4 cells/well were plated on 48-well plate and left for 12 hours for attachment. Cells were then treated with the test compounds and solvent control for 48 hours. Numbers of live cells were determined by SRB method. Briefly, cells were fixed with 50 μl/well 15% TCA for 1 hour, and then washed three times with double-distilled water. After drying 50 μl/well 1% SRB dye was added and reacted for 10 minutes. Plate was washed with 1% acetic acid. 0.2 ml Tris buffer (pH 9.6) was added and OD510 was recorded.
as §2

Series [3] relates to Mouse cervical carcinoma U14. Put plainly: In vivo anti-cancer efficacy, solid tumor model. The settings on record: for Tumor W.: ± SD. The source says:
Mouse cervical carcinoma U14 model was used to compare in vivo anti-cancer efficacy of 15-methyl-2-hexadecenoic acid, 13-methyl-tetradecanoic acid and the chemotherapy drug cytoxan (CTX).
40 male ICR strain mice, weighing 19–22 g, were randomly divided into 4 groups of 10 each. U14 cervical carcinoma mass (about 2 mm^3 each) was transplanted subcutaneously into the right armpits of all animals following standard procedure. The test group was given 15-methyl-2-hexadecenoic acid and 13-methyl-tetradecanoic acid at 0.4 g/kg, respectively, intragastrically (i.g.) daily for 11 days. The positive control group was given a single dose of CTX i.g. (25 mg/kg) on day 1. Negative control group was given normal saline (N.S.) at 0.2 ml/10 g daily for 11 days. On the 12th day, all mice were sacrificed and the tumors were isolated and weighed. The tumor inhibition rate (TIR) was calculated and subject to t test.

Series [4] has as its system ICR strain mice. In words: Acute toxicity, gavage administration. It is filed as in vivo, mouse (ICR strain). The settings on record: 2.5 g/kg twice a day, 14 days monitoring. Here is the method: The acute toxicity tests were assessed for two administration routes, through gavage and subcutaneous injection.
Thus, the acute toxicity test was conducted in twenty ICR strain mice, weighing 18–20 g. The Sample was given through gavage at dosage of 2.5 g/kg, twice a day. Continuous monitoring was made for 14 days.

Series [5] concerns human breast carcinoma MCF7ras. It is filed as in vivo. On the procedure: Thirty female Balb/c-nu/nu athymic mice, 6 weeks old, weighing 18–22 g, were housed in specific pathogen free (SPF) condition throughout the course of the experiment.
Subcutaneous transplantation of human breast carcinoma MCF7ras was carried out under aseptic condition. Tumor mass was cut into fragments (approximately 0.18×0.18×0.20 mm in size), and injected s.c. into the right mammary fat pad of each animal with a trocar. The mice were randomized into control and test groups of ten mice each. The day after transplantation, the mice in the test group were given through gavage 13-methyl-2-tetradecenoic acid at 400 mg/kg daily. The mice in two control groups were administered with CTX at 25 mg/kg and N.S. at 0.2 ml/10 g. All animals were sacrificed on day 23. The body weights and tumor weights were measured. The tumor inhibition rates (TIR) were determined by comparing the mean tumor weight of the test groups (T) with that of the control group (C) and expressed as a (C-T)/C percentage, and were analyzed by Student's test for statistical significance.

The test system of series [6] is Phagocytic Function of Reticuloendothelial System. It is filed as in vivo, mouse (ICR strain). The settings on record: single agent i.g.: Sample (N-(13-methyl-tetradecanoyl)-4-amino-1,2-benzenediol) 400 mg/kg daily 9 days; CTX 25 mg/kg day 1 and 6; X ± SD. Here is the method:
50 female ICR strain mice, weighing 19–24 g, were randomly divided into 5 groups of 10 each. One group was given N.S. at 20 ml/kg i.g. as a normal control. A positive control group was given CTX i.g. at 25 mg/kg on day 1 and 6. A third group was given N-(13-methyl-tetradecanoyl)-4amino-1,2-benzenediol (Sample) only at 400 mg/kg i. g. The remaining two groups were given both CTX (25 mg/kg on day 1 and 6) and Sample (100 mg/kg and 400 mg/kg, respectively). All treatments except CTX were administered daily for 9 days. 30 minutes after the last administration, 0.15 ml Yidege (1:10) was injected into the tail vein of each mouse. 1 minute and 5 minutes after, blood was drawn and 20 μl serum was mixed with 0.1% […]. OD680 was measured and the clearance index K=(1 gOD1–1 gOD2)/(t2−t1) was calculated.

The subject of series [7] is Serum Hemolysinogenesis. It is filed as in vivo, mouse (ICR strain). The settings on record: single agent i.g.: Sample (N-(13-methyl-tetradecanoyl)-4-amino-1,2-benzenediol) 0.4 g/kg; CTX 25 mg/kg; X ± SD. On the procedure:
50 male ICR strain mice, weighing 20–23 g, were randomly divided into 5 groups of 10 each. The method of administration in each group was the same as above phagocytic function). However, on the 6th day after administration, 0.2 ml 3:5 (VN) sheep red blood cell (RBC) suspension was injected i.p. into each mouse. 4 days later (day 10), blood was drawn from all animals and serum was prepared and then diluted 600 times. 1 ml diluted serum was mixed with 0.5 ml 10% sheep RBC suspension. N.S. was used as blank control. All samples were incubated at 37° C. for 30 minutes, and centrifuged (2000 rev/min) for 5 minutes. The supernatant was collected for measurement of OD540 and HC50 was calculated.

The test system of series [8] is Delayed Hypersensitivity. In words: Delayed hypersensitivity (sheep RBC). It is filed as in vivo, mouse (ICR strain). The settings on record: single agent i.g.: Sample (N-(13-methyl-tetradecanoyl)-4-amino-1,2-benzenediol) 0.4 g/kg; CTX 25 mg/kg; X ± SD. On the procedure: 50 female ICR strain mice, weighing 18–21 g, were randomly divided into 5 groups of 10 each. The method of administration in each group was the same as above phagocytic function). However, on the 5th day after administration, each mouse was injected with 50 μl 10% sheep RBC suspension through tail vein. 4 days later (day 9), each mouse was injected intradermally with 20 μl 10 sheep RBC suspension or normal saline into metatarus of the left or right hind limbs, respectively. The digital thickness of each mouse was measured 24 hours later, and the difference in thickness between left and right digits was subject to t test analysis.

The format of series [9] is in vivo, mouse (ICR strain). The conditions noted are these: single agent i.g.: Sample (N-(13-methyl-tetradecanoyl)-4-amino-1,2-benzenediol) 0.4 g/kg; CTX 25 mg/kg. The source says: The mice were sacrificed after delayed hypersensitivity test above and the thymus and […] were collected and weighed.
Setting [10] is: Table 2, unit inferred, methods same as in Experiment 1.
[11] abbreviates: day 12, test compounds 0.4 g/kg i.g. daily 11 days, CTX 25 mg/kg i.g. single dose.

≈ marks a conversion by molar mass, not a printed value.

In series [1] (setting [10]), “15-Methyl-2-hexadecanoic acid [Compound 29]” displayed a K562 IC50 of 10.1 µg/mL and a K562 IC90 of 17.7 µg/mL. In series [2] (setting [10]), the B16 IC50 amounted to 6.8 µg/mL and the B16 IC90 came to 10.5 µg/mL. Moreover, in series [3] (setting [11]), the “TIR (tumor inhibition rate)” value came to 81.0% and the “Tumor W.” value was found to be 0.50 ± 0.29 g. In series [3] (mouse, in vivo), the “Body W. D1” value amounted to 20.6 ± 0.7 g. Moreover, the observation after gavage result in [4] is on record as “No major anomaly was observed”. Moreover, the LD50 (as a rule, the dose expected to kill half of the subjects tested) in series [4] (mice) was above 5000 mg/kg.
As for `O=P1(N(CCCl)CCCl)NCCCO1` (stereo not drawn) [CTX, cytoxan, reference compound], in [3] (U14 mice, day 1 (baseline), X ± SD), the “Body W. D1” value stood at 20.6 ± 0.5 g. In series [3] (U14 mice, day 12, test compounds 0.4 g/kg i.g. daily 11 days, CTX 25 mg/kg i.g. single dose), the “Body W. D12” value is on record as 22.6 ± 1.2 g. In addition, in series [3] (setting [11]), the “TIR (tumor inhibition rate)” value is 82.5% and the “Tumor W.” value is given as 0.46 ± 0.17 g. In series [5] (MCF7ras nude mice, day 1 (baseline), X ± SD), the “Body weight D1” value is 20.4 ± 0.4 g. Also, the “Body weight D23” value in series [5] (MCF7ras nude mice, day 23, test 400 mg/kg gavage daily, CTX 25 mg/kg) came out at 18.6 ± 0.2 g. Besides, the “TIR (tumor inhibition rate, (C-T)/C percentage)” value in [5] (day 23, test 400 mg/kg gavage daily, CTX 25 mg/kg) was 76.5%. Besides, the “Tumor W.” value in series [5] (day 23, test 400 mg/kg gavage daily, CTX 25 mg/kg, X ± SD) was 0.43 ± 0.15 g. Also, in series [6], the “K (clearance index of carbon grain)” value was found to be 0.0238 ± 0.0161. This compound gave an HC50 in [7] of 22.51 ± 4.30. Also, the “Difference in thickness between left and right palm” value in series [8] is reported as 1.25 ± 0.48 mm. In series [9], this compound returned an Indices of pancreas of 2.287 ± 1.023 mg/10 g avoirdupois and an Indices of thymus of 1.387 ± 0.701 mg/10 g avoirdupois.
Take `CC(C)(C)CCCCCCCCCCCC(=O)O` [Compound 31, 13,13-Dimethyl-tetradecanoic acid]: the melting point (commonly the temperature, or range, at which the solid turns liquid) is 37 to 39 °C. The IC50 (in general, the midpoint of a concentration-inhibition curve) in series [1] (Homo sapiens, K562, Table 1, 48 hours, read-out: K562 IC50) worked out at 24.6 µg/mL (≈ 95.9 µM). For the same compound, the IC90 (commonly the point of the concentration-response curve where the effect stands at 90%) in series [1] (Homo sapiens, K562, Table 1, 48 hours, read-out: K562 IC90) is 37.5 µg/mL (≈ 146 µM). For the same compound, the IC50 in series [2] (Mus musculus, Table 1, 48 hours, read-out: B16 IC50) worked out at 20.4 µg/mL (≈ 79.6 µM). Besides, the IC90 in series [2] (Mus musculus, Table 1, 48 hours, read-out: B16 IC90) was 35.6 µg/mL (≈ 139 µM).
